Among the data in patent US8293768B2, “Organic compounds” (Novartis AG, priority 2006, dated 2012) are melting point values, retold here.

As for `Cc1nc(N2CCN(Cc3ccccc3)C2=O)sc1C(=O)NCc1cccnc1` [Example 9.7, 2-(3-benzyl-2-oxoimidazolidin-1-yl)-4-methyl-N-(pyridin-3-ylmethyl)thiazole-5-carboxamide], the melting point fell in the range of 153 to 154 °C.

With `Cc1nc(-n2cnn(CCNCc3ccc(F)cc3)c2=O)sc1C(=O)NCc1cccnc1` [Example 47, 2-(1-(2-(4-fluorobenzylamino)ethyl)-5-oxo-1H-1,2,4-triazol-4(5H)-yl)-4-methyl-N-(pyridin-3-ylmethyl)thiazole-5-carboxamide], the melting point fell in the range of 106 to 107 °C. As to `Cc1nc(N2CCN(Cc3ccncc3)C2=O)sc1C(=O)NCc1cccnc1` [Example 33, 4-methyl-2-(2-oxo-3-(pyridin-4-ylmethyl)imidazolidin-1-yl)-N-(pyridin-3-ylmethyl)thiazole-5-carboxamide], the melting point fell in the range of 233 to 235 °C. On to `Cc1cc(-c2sc(N3CCN(Cc4ccc(C(F)(F)F)cc4)C3=O)nc2C)n[nH]1` [Example 38.2, 1-(4-methyl-5-(5-methyl-1H-pyrazol-3-yl)thiazol-2-yl)-3-(4-(trifluoromethyl)benzyl)imidazolidin-2-one], for which the melting point is 238 to 239 °C.

Compound `Cc1nc(N2CCN(CC3CC3)C2=O)sc1C(=O)NCc1ccccn1` [Example 32.24, 2-(3-(cyclopropylmethyl)-2-oxoimidazolidin-1-yl)-4-methyl-N-(pyridin-2-ylmethyl)thiazole-5-carboxamide] showed a melting point of 148 to 151 °C. For `Cc1cc(N2CCN(Cc3ccc(C(N)=O)cc3)C2=O)sc1C(=O)NCc1cccnc1` [Example 55.2, 5-(3-(4-carbamoylbenzyl)-2-oxoimidazolidin-1-yl)-3-methyl-N-(pyridin-3-ylmethyl)thiophene-2-carboxamide], the melting point was 188 °C (dec.). The compound `Cc1cc(-n2cnn(Cc3ccc(C(F)(F)F)cc3)c2=O)sc1C(=O)NCc1cccnc1` [Example 31.3, 3-methyl-5-(5-oxo-1-(4-(trifluoromethyl)benzyl)-1H-1,2,4-triazol-4(5H)-yl)-N-(pyridin-3-ylmethyl)thiophene-2-carboxamide] displayed a melting point of 176 to 178 °C. Consider `Cc1nc(N2CCN(Cc3ccccc3)C2=N)sc1C(=O)NCc1ccc(F)c(F)c1` [Example 27.5, 2-(3-benzyl-2-iminoimidazolidin-1-yl)-N-(3,4-difluorobenzyl)-4-methylthiazole-5-carboxamide], for which the melting point fell in the range of 140 to 142 °C. For the compound `Cc1nc(N2CCN(CCC3CC3)C2=O)sc1C(=O)NCc1ccc(F)cc1` [Example 9.18, 2-(3-(2-cyclopropylethyl)-2-oxoimidazolidin-1-yl)-N-(4-fluorobenzyl)-4-methylthiazole-5-carboxamide], the melting point fell in the range of 122 to 123 °C.

In turn, `Cc1nc(N2CCN(Cc3ccc(OC(F)(F)F)cc3)C2=O)sc1C(=O)NCc1cccnc1` [Example 9.22, 4-methyl-2-(2-oxo-3-(4-(trifluoromethoxy)benzyl)imidazolidin-1-yl)-N-(pyridin-3-ylmethyl)thiazole-5-carboxamide] had a melting point of 165 to 166 °C. The compound `Cc1cnc(CNC(=O)c2sc(N3CCN(Cc4ccc(F)cc4)C3=O)nc2C)cn1` [Example 32.10, 2-(3-(4-fluorobenzyl)-2-oxoimidazolidin-1-yl)-4-methyl-N-((5-methylpyrazin-2-yl)methyl)thiazole-5-carboxamide] gave a melting point of 191 to 193 °C. The value for `Cc1nc(N2CCN(Cc3ccc(OC(F)(F)F)cc3)C2=O)sc1C(=O)NCCc1ccccc1` [Example 9.31, 4-methyl-2-(2-oxo-3-(4-(trifluoromethoxy)benzyl)imidazolidin-1-yl)-N-phenethylthiazole-5-carboxamide] was 184 to 185 °C; that for `Cc1cnc(CNC(=O)c2sc(-n3cnn(Cc4ccc(F)cc4)c3=O)cc2C)cn1` [Example 31.5, 5-(1-(4-fluorobenzyl)-5-oxo-1H-1,2,4-triazol-4(5H)-yl)-3-methyl-N-((5-methylpyrazin-2-yl)methyl)thiophene-2-carboxamide] was 189 to 191 °C; that for `Cc1nc(N2CCN(Cc3ccc(C(F)F)o3)C2=O)sc1C(=O)NCc1cccnc1` [Example 9.45, 2-(3-((5-(difluoromethyl)furan-2-yl)methyl)-2-oxoimidazolidin-1-yl)-4-methyl-N-(pyridin-3-ylmethyl)thiazole-5-carboxamide] was 142 to 143 °C.

In the case of `Cc1nc(N2CCN(Cc3c(C)noc3-c3ccccc3)C2=O)sc1C(=O)NCc1cccnc1` [Example 32.4, 4-methyl-2-(3-((3-methyl-5-phenylisoxazol-4-yl)methyl)-2-oxoimidazolidin-1-yl)-N-(pyridin-3-ylmethyl)thiazole-5-carboxamide], the melting point lay in the range of 109 to 111 °C. Regarding `O=C(NCc1cccnc1)c1cnc(N2CCN(CC3CC3)C2=O)s1` [Example 26, 2-(3-(cyclopropylmethyl)-2-oxoimidazolidin-1-yl)-N-(pyridin-3-ylmethyl)thiazole-5-carboxamide], the melting point fell in the range of 190 to 192 °C. Regarding `Cc1nc(N2C[C@@H](Cc3ccccc3)NC2=O)sc1C(=O)NCc1ccccc1` [Example 9.25, (R)—N-benzyl-2-(4-benzyl-2-oxoimidazolidin-1-yl)-4-methylthiazole-5-carboxamide], the melting point lay within 212 to 214 °C.

For the compound `Cc1nc(N2CCN(Cc3ccccc3)C2=O)sc1C(=O)NCc1ccc(F)cc1` [Example 9, 2-(3-benzyl-2-oxoimidazolidin-1-yl)-N-(4-fluorobenzyl)-4-methylthiazole-5-carboxamide], the melting point is 147 to 148 °C. In the case of `Cc1nc(N2CCN(Cc3ccc(F)cc3)C2=O)sc1C(=O)NCc1ccncn1` [Example 32.14, 2-(3-(4-fluorobenzyl)-2-oxoimidazolidin-1-yl)-4-methyl-N-(pyrimidin-4-ylmethyl)thiazole-5-carboxamide] it was 175 to 176 °C; in that of `Cc1nc(N2CCN(Cc3nc(C)n(-c4ccccc4)n3)C2=O)sc1C(=O)NCc1ccccc1` [Example 23.5, N-benzyl-4-methyl-2-(3-((5-methyl-1-phenyl-1H-1,2,4-triazol-3-yl)methyl)-2-oxoimidazolidin-1-yl)thiazole-5-carboxamide], 139 to 141 °C. The value for `Cc1nc(N2CCN(c3ccccc3)C2=O)sc1C(=O)O` [Example 6, 4-methyl-2-(2-oxo-3-phenylimidazolidin-1-yl)thiazole-5-carboxylic acid] was 286 to 289 °C; that for `Cc1nc(N2C(=O)N(Cc3ccc(F)cc3)CC2O)sc1C(=O)NCc1cccnc1` (stereo not drawn) [Example 16.2, 2-(3-(4-fluorobenzyl)-5-hydroxy-2-oxoimidazolidin-1-yl)-4-methyl-N-(pyridin-3-ylmethyl)thiazole-5-carboxamide] was 64 to 66 °C.

`Cc1nc(-n2cnn(CCOc3ccc(F)cc3)c2=O)sc1C(=O)NCc1cccnc1` [Example 21.2, 2-(1-(2-(4-fluorophenoxy)ethyl)-5-oxo-1H-1,2,4-triazol-4(5H)-yl)-4-methyl-N-(pyridin-3-ylmethyl)thiazole-5-carboxamide] registered a melting point of 154 to 155 °C. `COC(=O)c1ccc(CN2CCN(c3nc(C)cs3)C2=O)cc1` [Example 5.13, methyl 4-((3-(4-methylthiazol-2-yl)-2-oxoimidazolidin-1-yl)methyl)benzoate] showed a melting point of 157 to 158 °C.

As usually defined, the melting point is the temperature of the solid-liquid transition.
